Test results: US9409905B2, “Antibacterial compounds and methods for use” (PTC THERAPEUTICS, INC., priority 2011, dated 2016)
In brackets after ≈: the same amount, converted by molar mass.

Assays:
E. coli LZ3111 = assay: Antibacterial activity, MIC, quinolone resistant strain (Table 2); format: cell-based; conditions: Escherichia coli, LZ3111, read-out: MIC LZ3111
Method in brief: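 Growth inhibition assessed by serial drug dilution in broth; endpoint was absence of macroscopically visible growth, reported as MIC, μg/mL.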

[1] = system: Moraxella catarrhalis (M. catarrhalis) 25238; assay: Antibacterial activity, MIC (Table 7); format: cell-based
Description: (§1) The antibacterial activity from a microbroth dilution method may be presented as the minimum inhibitory concentration (MIC in μg/mL). The MIC value is the lowest concentration of drug which prevents macroscopically visible growth under test conditions.
(§2) Antibacterial activity of test compounds against the Gram-negative bacteria Haemophilus influenzae (H. influenzae) 49247 is shown in Table 6, Moraxella catarrhalis (M. catarrhalis) 25238 is shown in Table 7 and Neisseria meningitidis (N. meningitidis) 13090 is shown in Table 8.

[2] = system: Pseudomonas aeruginosa (P. aeruginosa) 27853; assay: Antibacterial activity, MIC (Table 5); format: cell-based; conditions: P. aeruginosa 27853, read-out: MIC, 27853
Method in brief: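 Using a microbroth dilution format, the minimum inhibitory concentration was recorded as the lowest tested concentration that stopped visible bacterial growth, expressed in μg/mL.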

A. baumannii MXX2240 = assay: Antibacterial activity, MIC, resistant strain (Table 4); format: cell-based; conditions: Acinetobacter baumannii, MXX2240; resistant A. baumannii MMX2240, multi-drug resistant clinical isolate; read-out: MIC, MMX2240
Method in brief: (§3)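 MIC in μg/mL by microbroth dilution, scored as the lowest level that suppresses visible growth.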

K. pneumoniae MXX1232 = assay: as above; format: cell-based; conditions: Klebsiella pneumoniae, MXX1232; resistant K. pneumoniae MMX1232, multi-drug resistant clinical isolate; read-out: MIC, MMX1232
Method in brief: as §3

[3] = system: Escherichia coli (E. coli) BAS849; assay: Antibacterial activity, microbroth dilution MIC (Table 1); format: cell-based; conditions: microbroth dilution, super sensitive Gram-negative E. coli BAS849, read-out: MIC, BAS849
Method in brief: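 Using broth microdilution, MIC endpoints (μg/mL) mark where visible growth no longer appears; the panel spans sensitive and control Gram-negative strains plus a Gram-positive strain.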

[4] = system: Staphylococcus aureus (S. aureus) 29213; assay: as above; format: cell-based; conditions: microbroth dilution, Gram-positive S. aureus 29213, read-out: MIC, 29213
Method in brief: (§4)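 Broth microdilution; endpoint = no macroscopic growth; value = lowest inhibiting concn, μg/mL.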

E. coli ELZ4000 = assay: Antibacterial activity, MIC, multi-drug resistant clinical isolate (Table 3); format: cell-based; conditions: Escherichia coli, ELZ4000, read-out: MIC ELZ4000
Method in brief: (§5)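 Values derive from a microbroth dilution method, taking as MIC (μg/mL) the lowest tested concentration without macroscopically visible growth.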

E. coli ELZ4251 = assay: as above; format: cell-based; conditions: Escherichia coli
Method in brief: as §5

E. coli 25922 = assay: Antibacterial activity, microbroth dilution MIC (Table 1); format: cell-based, Escherichia coli; conditions: Escherichia coli; microbroth dilution; control Gram-negative E. coli 25922 strain; read-out: MIC, 25922
Method in brief: as §4

[5] = system: Klebsiella pneumoniae (K. pneumoniae) 35657; assay: Antibacterial activity, MIC (Table 4); format: cell-based; conditions: K. pneumoniae 35657, read-out: MIC, 35657
Method in brief: as §3

[6] = system: Acinetobacter baumannii (A. baumannii) BAA747; assay: Antibacterial activity, MIC (Table 4); format: cell-based; conditions: A. baumannii BAA747, read-out: MIC, BAA747
Method in brief: as §3

[7] = system: Neisseria meningitidis (N. meningitidis) 13090; assay: Antibacterial activity, MIC (Table 8); format: cell-based
Description: as §1, §2

[8] = system: Haemophilus influenzae (H. influenzae) 49247; assay: Antibacterial activity, MIC (Table 6); format: cell-based
Description: as §1, §2

Work on CCNCc1cc2cc(-c3[nH]c(=O)c(C(=O)O)c(O)c3CC)ccc2n1C [Cpd 165, 5-ethyl-6-(2-((ethylamino)methyl)-1-methyl-1H-indol-5-yl)-4-hydroxy-2-oxo-1,2-dihydropyridine-3-carboxylic acid] yielded an MIC (E. coli LZ3111) of 1 to 3.5 µg/mL (≈ 2.71 to 9.47 µM), an MIC [1] of under 1 µg/mL and an MIC [2] of 3.5 to 12.5 µg/mL (≈ 9.47 to 33.8 µM). It also gave an MIC (A. baumannii MXX2240) of 3.5 to 12.5 µg/mL (≈ 9.47 to 33.8 µM), an MIC (K. pneumoniae MXX1232) of 12.5 to 150 µg/mL (≈ 33.8 to 406 µM) and an MIC [3] of under 1 µg/mL. The MIC [4] was 3.5 to 12.5 µg/mL (≈ 9.47 to 33.8 µM), the MIC (E. coli ELZ4000) was 3.5 to 12.5 µg/mL (≈ 9.47 to 33.8 µM) and the MIC (E. coli ELZ4251) was 1 to 3.5 µg/mL (≈ 2.71 to 9.47 µM). For the same compound, the MIC (E. coli 25922) was under 1 µg/mL, the MIC [5] was under 1 µg/mL and the MIC [6] was under 1 µg/mL. It also gave an MIC [7] of under 1 µg/mL and an MIC [8] of under 1 µg/mL.
Compound CCc1c(-c2ccc3c(c2)cc(CN(C)C)n3C)[nH]c(=O)c(C(=O)O)c1O [Cpd 166, 6-(2-((dimethylamino)methyl)-1-methyl-1H-indol-5-yl)-5-ethyl-4-hydroxy-2-oxo-1,2-dihydropyridine-3-carboxylic acid] has an MIC (E. coli LZ3111) of 3.5 to 12.5 µg/mL (≈ 9.47 to 33.8 µM), an MIC [1] of under 1 µg/mL and an MIC [2] of 3.5 to 12.5 µg/mL (≈ 9.47 to 33.8 µM). For the same compound, the MIC (A. baumannii MXX2240) was 1 to 3.5 µg/mL (≈ 2.71 to 9.47 µM), the MIC (K. pneumoniae MXX1232) was 12.5 to 150 µg/mL (≈ 33.8 to 406 µM) and the MIC [3] was under 1 µg/mL. It also gave an MIC [4] of 3.5 to 12.5 µg/mL (≈ 9.47 to 33.8 µM), an MIC (E. coli ELZ4000) of 12.5 to 150 µg/mL (≈ 33.8 to 406 µM) and an MIC (E. coli ELZ4251) of 3.5 to 12.5 µg/mL (≈ 9.47 to 33.8 µM). For the same compound, the MIC (E. coli 25922) was under 1 µg/mL, the MIC [5] was under 1 µg/mL and the MIC [6] was under 1 µg/mL. For the same compound, the MIC [7] was under 1 µg/mL and the MIC [8] was under 1 µg/mL.
In the case of CCc1c(-c2ccc3c(c2)cc(CN(CC)CC)n3C)[nH]c(=O)c(C(=O)O)c1O [Cpd 167, 6-(2-((diethylamino)methyl)-1-methyl-1H-indol-5-yl)-5-ethyl-4-hydroxy-2-oxo-1,2-dihydropyridine-3-carboxylic acid], the MIC (E. coli LZ3111) is reported as 3.5 to 12.5 µg/mL (≈ 8.81 to 31.4 µM), the MIC [1] is reported as under 1 µg/mL and the MIC [2] is reported as 12.5 to 150 µg/mL (≈ 31.4 to 377 µM). The MIC (A. baumannii MXX2240) was 3.5 to 12.5 µg/mL (≈ 8.81 to 31.4 µM), the MIC (K. pneumoniae MXX1232) was 12.5 to 150 µg/mL (≈ 31.4 to 377 µM) and the MIC [3] was under 1 µg/mL. For the same compound, the MIC [4] was 12.5 to 150 µg/mL (≈ 31.4 to 377 µM), the MIC (E. coli ELZ4000) was 12.5 to 150 µg/mL (≈ 31.4 to 377 µM) and the MIC (E. coli ELZ4251) was 3.5 to 12.5 µg/mL (≈ 8.81 to 31.4 µM). It also gave an MIC (E. coli 25922) of under 1 µg/mL, an MIC [5] of 1 to 3.5 µg/mL (≈ 2.52 to 8.81 µM) and an MIC [6] of 1 to 3.5 µg/mL (≈ 2.52 to 8.81 µM). For the same compound, the MIC [7] was under 1 µg/mL and the MIC [8] was under 1 µg/mL.
CCc1c(-c2ccc3c(c2)cc(CN2CCOCC2)n3C)[nH]c(=O)c(C(=O)O)c1O [Cpd 168, 5-ethyl-4-hydroxy-6-(1-methyl-2-(morpholinomethyl)-1H-indol-5-yl)-2-oxo-1,2-dihydropyridine-3-carboxylic acid] showed an MIC (E. coli LZ3111) of 3.5 to 12.5 µg/mL (≈ 8.51 to 30.4 µM), an MIC [1] of under 1 µg/mL and an MIC [2] of 12.5 to 150 µg/mL (≈ 30.4 to 365 µM). For the same compound, the MIC (A. baumannii MXX2240) was 3.5 to 12.5 µg/mL (≈ 8.51 to 30.4 µM), the MIC (K. pneumoniae MXX1232) was 12.5 to 150 µg/mL (≈ 30.4 to 365 µM) and the MIC [3] was under 1 µg/mL. It also gave an MIC [4] of 1 to 3.5 µg/mL (≈ 2.43 to 8.51 µM), an MIC (E. coli ELZ4000) of 12.5 to 150 µg/mL (≈ 30.4 to 365 µM) and an MIC (E. coli ELZ4251) of 12.5 to 150 µg/mL (≈ 30.4 to 365 µM). For the same compound, the MIC (E. coli 25922) was 1 to 3.5 µg/mL (≈ 2.43 to 8.51 µM), the MIC [5] was 1 to 3.5 µg/mL (≈ 2.43 to 8.51 µM) and the MIC [6] was 1 to 3.5 µg/mL (≈ 2.43 to 8.51 µM). For the same compound, the MIC [7] was under 1 µg/mL and the MIC [8] was under 1 µg/mL.
Compound CCc1c(-c2ccc3c(c2)cc(CN2CCN(C)CC2)n3C)[nH]c(=O)c(C(=O)O)c1O [Cpd 169, 5-ethyl-4-hydroxy-6-(1-methyl-2-((4-methylpiperazin-1-yl)methyl)-1H-indol-5-yl)-2-oxo-1,2-dihydropyridine-3-carboxylic acid] has an MIC (E. coli LZ3111) of 3.5 to 12.5 µg/mL (≈ 8.24 to 29.4 µM), an MIC [1] of under 1 µg/mL and an MIC [2] of 12.5 to 150 µg/mL (≈ 29.4 to 353 µM). The MIC (A. baumannii MXX2240) was 12.5 to 150 µg/mL (≈ 29.4 to 353 µM), the MIC (K. pneumoniae MXX1232) was 12.5 to 150 µg/mL (≈ 29.4 to 353 µM) and the MIC [3] was under 1 µg/mL. It also gave an MIC [4] of 3.5 to 12.5 µg/mL (≈ 8.24 to 29.4 µM), an MIC (E. coli ELZ4000) of 12.5 to 150 µg/mL (≈ 29.4 to 353 µM) and an MIC (E. coli ELZ4251) of 12.5 to 150 µg/mL (≈ 29.4 to 353 µM). For the same compound, the MIC (E. coli 25922) was 1 to 3.5 µg/mL (≈ 2.36 to 8.24 µM), the MIC [5] was 1 to 3.5 µg/mL (≈ 2.36 to 8.24 µM) and the MIC [6] was 1 to 3.5 µg/mL (≈ 2.36 to 8.24 µM). For the same compound, the MIC [7] was under 1 µg/mL and the MIC [8] was 1 to 3.5 µg/mL (≈ 2.36 to 8.24 µM).
In the case of CCc1c(-c2ccc3c(c2)cc(CNC)n3C)[nH]c(=O)c(C(=O)O)c1O [Cpd 203, 5-ethyl-4-hydroxy-6-(1-methyl-2-((methylamino)methyl)-1H-indol-5-yl)-2-oxo-1,2-dihydropyridine-3-carboxylic acid], the MIC (E. coli LZ3111) is reported as 1 to 3.5 µg/mL (≈ 2.81 to 9.85 µM), the MIC [1] is reported as under 1 µg/mL and the MIC [2] is reported as 1 to 3.5 µg/mL (≈ 2.81 to 9.85 µM). It also gave an MIC (A. baumannii MXX2240) of 3.5 to 12.5 µg/mL (≈ 9.85 to 35.2 µM), an MIC (K. pneumoniae MXX1232) of 12.5 to 150 µg/mL (≈ 35.2 to 422 µM) and an MIC [3] of under 1 µg/mL. The MIC [4] was 3.5 to 12.5 µg/mL (≈ 9.85 to 35.2 µM), the MIC (E. coli ELZ4000) was 3.5 to 12.5 µg/mL (≈ 9.85 to 35.2 µM) and the MIC (E. coli ELZ4251) was 1 to 3.5 µg/mL (≈ 2.81 to 9.85 µM). For the same compound, the MIC (E. coli 25922) was under 1 µg/mL, the MIC [6] was under 1 µg/mL and the MIC [7] was under 1 µg/mL. For the same compound, the MIC [8] was under 1 µg/mL.
C=CCNCc1cc2cc(-c3[nH]c(=O)c(C(=O)O)c(O)c3CC)ccc2n1C.Cl [Cpd 243, 6-(2-((allylamino)methyl)-1-methyl-1H-indol-5-yl)-5-ethyl-4-hydroxy-2-oxo-1,2-dihydropyridine-3-carboxylic acid hydrochloride] showed an MIC (E. coli LZ3111) of 1 to 3.5 µg/mL, an MIC [1] of under 1 µg/mL and an MIC [2] of 3.5 to 12.5 µg/mL. It also gave an MIC (K. pneumoniae MXX1232) of 12.5 to 150 µg/mL, an MIC [3] of under 1 µg/mL and an MIC [4] of 3.5 to 12.5 µg/mL. For the same compound, the MIC (E. coli ELZ4000) was 3.5 to 12.5 µg/mL, the MIC (E. coli ELZ4251) was 1 to 3.5 µg/mL and the MIC (E. coli 25922) was under 1 µg/mL. It also gave an MIC [5] of under 1 µg/mL, an MIC [6] of under 1 µg/mL and an MIC [7] of under 1 µg/mL. The MIC [8] was under 1 µg/mL.
